# Laboratory results published in publication PMC7997032, “Organic synthesis and anti-influenza A virus activity of cyclobakuchiols A, B, C, and D” (PLoS ONE, 2021).
# Values joined by “and” are separate entries in the source; they are usually repeats but may differ in a detail not shown here. Equal entries are not always repeated. Where two headings read alike, the source gives them in different places.
# Key:
# [1] = test system: Nrf2; assay: Nrf2 reporter assay (dual luciferase system) in MDCK cells; assay type: cell-based, canine
# [2] = test system: A/PR/8/34 virus; assay: Influenza A viral growth assay (viral titer of culture media); assay type: cell-based, influenza A H1N1 virus; design: viral titer of culture media, individual replicate / viral titer of culture media, ave: unit not given here
# [3] = test system: A/WSN/33 virus; assay: Viability of influenza A virus-infected MDCK cells by naphthol blue-black staining; assay type: cell-based, influenza A H1N1 virus; conditions: A/WSN/33, MOI 10, 72 h, 0.4–25 μM
# Protocol: MDCK cells were seeded on a 96-well plate (1 × 10^4 cells/well). 2–5 (0.4–25 μM) were mixed with A/PR/8/34, A/CA/7/09, or A/WSN/33 viruses in 10% FBS-supplemented growth medium at a multiplicity of infection (MOI) of ten. DMSO (0.004–1%) or 1 (0.4–25 μM) were used as negative or positive controls, respectively. […] After incubation, the cells were stained with naphthol blue–black, as previously described. Viable cells in each well were stained blue, whereas dead cells remained unstained.
# [4] = test system: NAD(P)H quinone oxidoreductase 1 (Nqo1); assay: RT-qPCR of Nqo1 mRNA in MDCK cells with or without A/PR/8/34 virus; assay type: cell-based, canine; conditions: for NQO1 Canis lupus mRNA, ave / NQO1 Canis lupus mRNA, individual replicates: 12.5uM, MDCK, relative to virus - DMSO; for NQO1 Canis lupus mRNA, ave: ave of #1-3 exp; for NQO1 Canis lupus mRNA, individual replicates: replicates 1-3 of #1, #2, #3 exp
# [5] = test system: A/PR/8/34 viral NA; design: method as in PMID 26446794; conditions: cited from earlier work
# [6] = test system: A/CA/7/09 viral HA; design: method as in PMID 26446794; conditions: cited from earlier work
# [7] = test system: MDCK cells; assay: MTT assay (cytotoxicity against MDCK cells); assay type: cell-based, canine; conditions: ≤50 μM, 24 or 72 h
# Outline: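 Compounds at 0.8–100 μM (final DMSO up to 1%) in DMEM with 1% BSA and 4 mM L-glutamine incubated with cells 24 or 72 h at 37°C, 5% CO2. Viability measured by MTT.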
# [8] = test system: A/CA/7/09 viral NA; design: method as in PMID 26446794; conditions: cited from earlier work
# [9] = test system: A/WSN/33 virus; assay: Influenza A viral growth assay (viral titer of culture media); assay type: cell-based, influenza A H1N1 virus; conditions: for viral titer of conditioned media compared with DMSO: A/WSN/34 as printed, 12.5 μM
# [10] = test system: A/WSN/33 virus; assay: Immunofluorescence staining of viral NP in influenza A virus-infected MDCK cells; conditions: for percentage of influenza A NP-positive cells relative to DMSO: 24 h, Fig 4D; for NP/DAPI (%) ave: WSN
# Protocol: MDCK cells were seeded on a 96-well plate at 1 × 10^4 cells/well. […] Each mixture was added to the cells at 37°C in the presence of 5% CO2. […] After influenza A viral infection for 24 h, the cells were fixed with 4% paraformaldehyde in phosphate-buffered saline (PBS) for 30 min at 4°C and subsequently permeabilized by the addition of 0.3% Triton X-100 for 20 min at 25°C. A mouse primary antibody was used to detect the NP of A/PR/8/34 or A/WSN/33 viruses (FluA-NP 4F1; SouthernBiotech, AL, USA). Alexa Fluor488-conjugated goat anti-mouse IgG (H + L) antibody (Thermo Fisher Scientific) was used as the secondary antibody. Cell nuclei were then stained using diamidino-2-phenylindole (DAPI) (Thermo Fisher Scientific). Wells were photographed using a fluorescence microscope (BIOREVO BZ-X700; Keyence, Osaka, Japan). The proportion of influenza A NP-positive cells per DAPI-positive cells was calculated based on measurements recorded using BZ-X Analyzer software (Keyence).
# [11] = test system: A/PR/8/34 viral HA; design: method as in PMID 26446794; conditions: cited from earlier work
# [12] = test system: canine interferon-β (Ifn-β); assay: RT-qPCR of Ifn-β mRNA in MDCK cells with or without A/PR/8/34 virus; assay type: cell-based; conditions: for MDCK IFN-b mRNA, ave / MDCK IFN-b mRNA, individual replicates: 12.5uM, relative to virus - DMSO; for MDCK IFN-b mRNA, ave: ave of #1-3 exp; for MDCK IFN-b mRNA, individual replicates: replicates 1-3 of #1, #2, #3 exp
# [13] = test system: A/PR/8/34 virus; assay: RT-qPCR of viral mRNAs (NP, NS1, PA, PB1, PB2, M2) in infected MDCK cells; assay type: cell-based, influenza A H1N1 virus
# [14] = test system: recombinant A/PR/8/34 viral HA protein; design: method as in PMID 26446794; conditions: cited from earlier work
# [15] = test system: A/PR/8/34 virus; assay type: cell-based
# [16] = MDCK cells, PR8 virus, relative to DMSO (about 1), ave of #1-3 exp (9 values)
# [17] = MDCK cells, PR8 virus, relative to DMSO, replicates 1-3 of #1, #2, #3 exp
# [18] = 12.5 μM, 24h WB, average of 3 experiments
# [19] = 12.5 μM, 24h WB, single experiment
# [20] = 12.5 μM, 24 h post-infection, Fig 7C
structure (smiles),measurement,setting,value
"C=C[C@@](C)(/C=C/c1ccc(O)cc1)CCC=C(C)C [(+)-(S)-bakuchiol, reference compound]",Nrf2 activation (reporter assay) in contrast to DMSO,"[1]; 12.5 μM, 24 h, MDCK cells",induce Nrf2 activation
same,"pNQO1-ARE-Luc NRF2 reporter assay, ave","[1]; 12.5uM, relative to DMSO trans+, ave of #1-3 exp",1.302
same,"pNQO1-ARE-Luc NRF2 reporter assay, individual replicates","[1]; 12.5uM, relative to DMSO trans+, two values each of #1, #2, #3 exp",1.091 and 1.274 and 1.491 and 1.4074 and 1.544 and 1.002
same,"viral titer of culture media, ave","[2]; A/PR/8/34 (PR8), 12.5uM, 12h, average of #1-3 exp (n=9)",23333.3
same,viral titer of conditioned media compared with DMSO,"[2]; A/PR/8/34, 12.5 μM, 12–72 h",significantly reduced
same,naphthol blue-black staining of infected cells,[3],not stained
same,relative mRNA level of Nqo1 compared with DMSO,[4],significantly upregulated
same,"NQO1 Canis lupus mRNA, ave",[4]; virus + (PR8),2.213
same,"NQO1 Canis lupus mRNA, individual replicates",[4]; virus + (PR8),2.486 and 2.782 and 2.118 and 2.457 and 1.645 and 1.778 and 1.772 and 2.442 and 2.434
same,"NQO1 Canis lupus mRNA, ave",[4]; virus -,1.91
same,"NQO1 Canis lupus mRNA, individual replicates",[4]; virus -,1.8342 and 2.199 and 2.0999 and 1.939 and 1.851 and 1.6659 and 2.003 and 1.832 and 1.767
same,relative mRNA level of Nqo1 compared with DMSO,"[4]; without A/PR/8/34 virus, 12.5 μM, 24 h",significantly upregulated
same,inhibition of viral NA activity,[5],did not inhibit
same,inhibition of hemagglutination of chicken red blood cells,[6],did not inhibit
same,cell viability / toxicity (MTT),[7],not affected
same,inhibition of viral NA activity,[8],did not inhibit
same,"viral titer of culture media, ave","[9]; A/WSN/33 (WSN), 12.5uM, 12h, average of #1-3 exp (n=9)",15811.1
same,viral titer of conditioned media compared with DMSO,[9]; 48–72 h,not reduced
same,viral titer of conditioned media compared with DMSO,[9]; 24 h,significantly reduced
same,percentage of influenza A NP-positive cells relative to DMSO,"[10]; A/WSN/33, 12.5 μM",significantly reduced
same,percentage of influenza A NP-positive cells relative to DMSO,"[10]; A/WSN/33, 3.1–6.3 μM",did not significantly reduce
same,NP/DAPI (%) ave,"[10]; 3.13uM, ave of 9 values (3 exp)",23.4639%
same,NP/DAPI (%) ave,"[10]; 6.25uM, ave of 9 values (3 exp)",22.221%
same,NP/DAPI (%) ave,"[10]; 12.5uM, ave of 9 values (3 exp)",22.092%
same,NP/DAPI (%) ave,"[10]; 25uM, ave of 9 values (3 exp)",25.1439%
same,NP/DAPI (%) ave,"[10]; ave summary, 3.13%",23.4639%
same,NP/DAPI (%) ave,"[10]; ave summary, 6.25%",22.221%
same,NP/DAPI (%) ave,"[10]; ave summary, 12.50%",22.092%
same,NP/DAPI (%) ave,"[10]; ave summary, 25%",25.1439%
same,inhibition of hemagglutination of chicken red blood cells,[11],did not inhibit
same,virus-induced upregulation of Ifn-β mRNA,[12],significantly reduced
same,"MDCK IFN-b mRNA, ave",[12]; virus +,3.367
same,"MDCK IFN-b mRNA, individual replicates",[12]; virus +,2.6311 and 8.162 and 4.8 and 5.795 and 3.073 and 1.349 and 1.382 and 0.9842 and 2.128
same,"MDCK IFN-b mRNA, ave",[12]; virus -,1.794
same,"MDCK IFN-b mRNA, individual replicates",[12]; virus -,0.2606 and 0.6947 and 2.008 and 8.353 and 0.6874 and 0.5651 and 1.697 and 0.7342 and 1.151
same,reduction in the level of NP mRNA compared with 4 and 5,"[13]; 12.5 μM, 24 h, Fig 6A",significantly stronger
same,reduction in the level of PB2 mRNA compared with 5,"[13]; 12.5 μM, 24 h, Fig 6E",significantly stronger
same,"relative mRNA expression levels of viral genes (NP, NS1, PA, PB1, PB2, M2) compared with DMSO","[13]; 12.5 μM, MOI 0.1, 24 h",significantly decreased
same,"PR8 NP gene expression qPCR, ave","[13]; MDCK PR8, NP mRNA, relative (DMSO about 1), average of #1-3 exp (n=9)",0.01761
same,"PR8 NP gene expression qPCR, individual replicate","[13]; MDCK PR8, NP mRNA, relative (DMSO about 1), replicates of #1-3 exp",0.006615 and 0.02549 and 0.02199 and 0.02377 and 0.03127 and 0.01502 and 0.01903 and 0.00944 and 0.005898
same,"PR8 NS1 gene expression qPCR, ave","[13]; MDCK PR8, NS1 mRNA, relative (DMSO about 1), average of #1-3 exp (n=9)",0.01277
same,"PR8 NS1 gene expression qPCR, individual replicate","[13]; MDCK PR8, NS1 mRNA, relative (DMSO about 1), replicates of #1-3 exp",0.005751 and 0.01688 and 0.01532 and 0.01756 and 0.02149 and 0.008029 and 0.01283 and 0.01159 and 0.005477
same,"PR8 PA gene expression qPCR, ave","[13]; MDCK PR8, PA mRNA, relative (DMSO about 1), average of #1-3 exp (n=9)",0.01401
same,"PR8 PA gene expression qPCR, individual replicate","[13]; MDCK PR8, PA mRNA, relative (DMSO about 1), replicates of #1-3 exp",0.007199 and 0.01835 and 0.01386 and 0.0158 and 0.019 and 0.01338 and 0.01452 and 0.01667 and 0.00733
same,"PR8 M2 gene expression qPCR, ave",[13]; [16],0.01399
same,"PR8 PB1 gene expression qPCR, ave",[13]; [16],0.009536
same,"PR8 PB2 gene expression qPCR, ave",[13]; [16],0.01448
same,"PR8 M2 gene expression qPCR, individual replicates",[13]; [17],0.006766 and 0.02094 and 0.01741 and 0.01624 and 0.02057 and 0.01274 and 0.01424 and 0.01232 and 0.004647
same,"PR8 PB1 gene expression qPCR, individual replicates",[13]; [17],0.005288 and 0.01134 and 0.00694 and 0.008199 and 0.02025 and 0.01044 and 0.005541 and 0.01144 and 0.006386
same,"PR8 PB2 gene expression qPCR, individual replicates",[13]; [17],0.00629 and 0.02178 and 0.01747 and 0.01955 and 0.0211 and 0.01165 and 0.01377 and 0.01287 and 0.005833
same,inhibition of trypsin digestion of recombinant HA protein,[14],did not inhibit
same,expression of NP and NS1 proteins compared with DMSO (western blot),"[15]; 12.5 μM, 8, 12 or 24 h post-infection",reduced
same,NP/b-actin ave,[15]; [18],0.4577
same,NS1/b-actin ave,[15]; [18],0.476
same,"NP mean (western blot signal intensity, ImageJ)",[15]; [19],41.483 and 67.678 and 82.727
same,NS1/b-actin,[15]; [19],0.411 and 0.4433 and 0.5737
same,"NS1 mean (western blot signal intensity, ImageJ)",[15]; [19],69.425 and 77.937 and 55.734
same,expression level of NP protein compared with the 4 or 5 treatment groups,[15]; [20],significantly reduced
same,expression levels of NP or NS1 proteins from signal intensities compared with DMSO,[15]; [20],significantly reduced
